From patent US9283242B2, “Uses of dihydro bases” (priority 2013, dated 2016)
“Also recorded” adds a separate entry of the source.

Experiment: Variable temperature 1H NMR, tautomerism in DMF-d7
Assay type: physicochemical
Conditions: for tautomerism by Variable Temperature NMR: DMF-d7, 20 to −60° C.
Method: At 20° C., exchangeable protons on the base moiety are observed at 7.58 ppm and 4.14 ppm (FIG. 10). At −60° C., exchangeable protons on the base moiety are observed at 8.70 ppm, 8.08 ppm, and 4.68 ppm (FIG. 11). Protons with a chemical shift of 8.70, 8.08, and 7.58 ppm likely correspond to enolic, amido, or imino protons, while protons with a chemical shift of 4.68 and 4.14 ppm likely correspond to amino protons. The expected chemical shifts for enolic, amido, and imino protons are relatively close, and thus these species cannot be assigned at this stage. […] Only the existence of multiple tautomeric species would explain the presence of three exchangeable protons resonances. […] Based on their chemical structures, the keto-amino tautomer will pair with guanine and the keto-imino/enol-imino tautomers can pair with adenine.
All NMR experiments were performed on Varian 500 MHz NMR spectrometers. The deuterated solvent DMF-d7 was from Cambridge Isotope Laboratories, Andover, Mass., USA. 5-Aza-5,6-dihydro-2′-deoxycytidine (KP1212) nucleoside was from Berry & Associates Inc., Dexter, Mich., USA. The NMR sample was prepared by dissolving 10 mg of KP1212 nucleoside in 1.0 ml DMF-d7 (final concentration ˜44 mM). ^1H NMR spectra were reported in parts per million (ppm) and were referenced to the signals for DMF-d7 (8.03 ppm). ^13C NMR spectra were referenced to the signals for DMF-d7 (163.15 ppm).
FIG. 14A depicts the structures of all five possible tautomers (1 to 5) of KP1212, among which the three active protons on the nucleobase shift among the 02, N3, N4 and N5 positions. […] Before assigning the three active protons on the nucleobase moiety, all non-exchangeable protons in KP1212 and the two hydroxyl protons on the 3′ and 5′ positions were identified by carrying out 1D (^1H and ^13C) and 2D (COSY, HSQC, and HMBC) NMR experiments. The NMR signals of the three active protons in the base portion of KP1212 were studied at different temperatures. […] When the temperature was decreased to −50° C., the three broad peaks resolved into six distinct proton resonances (FIG. 14B, denoted as peaks i-vi), which could be assigned to imino (designated as e and n in FIGS. 14A to 14C), amido (designated as g and m), enolic (designated as c and d) or amino (designated as a, b, f, h, i, j, k, l, and o) protons.
At −50° C. six distinct proton resonances (FIG. 14B, i to vi) were observed, attributable to protons bound either to nitrogen or to oxygen atom (for only the base portion of the KP1212 molecule). Integration of the six broad peaks permitted estimation of the relative ratios of the five tautomeric species that exist in solution (FIG. 14A).
The NMR data also allowed the determination of the relative ratios of the tautomeric species present in the DMF solution at −50° C. (FIGS. 14B and 14C). Several peaks in the NMR spectrum partially overlapped (e.g., iv and v), so the raw data were reconstructed using a least squares fit algorithm (FIG. 16). The reconstructed peaks from the simulation were integrated, yielding an estimate of the relative amounts of each of the proton resonances in the spectrum. […] 2) Based on the peak assignments from part 1), a system of linear equations was set up using the relative amounts of tautomers as unknown variables (FIG. 14D). Each NMR peak provided a linear equation whereby the peak area should be equal to the sum of all tautomers (as relative amounts) containing protons that contribute to that peak. The solutions of these equations yielded the relative ratios of the tautomeric species present in DMF at −50° C. (FIG. 14D).

[1] = −50° C. in DMF, deconvoluted from NMR spectrum

Row | SMILES | tautomerism by Variable Temperature NMR | relative proportion of enol tautomer 1 [1] | relative proportion of enol tautomer 2 [1] | relative proportion of keto tautomers 3 to 5 collectively [1] | tautomerism by Variable Temperature NMR (listed as deoxycytidine)
1 | NC1=NC(=O)N([C@H]2C[C@H](O)[C@@H](CO)O2)CN1 [KP1212, 5-aza-5,6-dihydro-2′-deoxycytidine] | shows multiple tautomerism; also recorded: different tautomeric forms | 51% | 38% | 11% | –
2 | Nc1ccn([C@H]2C[C@H](O)[C@@H](CO)O2)c(=O)n1 [dC, deoxycytidine] | does not show multiple tautomerism; also recorded: single tautomerism | – | – | – | only one tautomeric form; also recorded: no imino or enol tautomer exists
